Measured values: US20220000848A1, “APPLICATION OF CHIDAMIDE” (SHENZHEN CHIPSCREEN BIOSCIENCES CO., LTD., priority 2018, published 2022)

Assays:
[1] = tested on: relapsed or refractory B cell lymphoma; experiment: Phase II clinical trial of Chidamide monotherapy in relapsed or refractory B cell lymphoma; type: in vivo, human; conditions: patients, oral 30 mg 2 times a week; 8 cases evaluated of 10 enrolled
Description: (§1) Test drugs: Chidamide tablets: off-white tablets, 5 mg/tablet. Produced by Shenzhen Chipscreen Biosciences Co., Ltd.
(§2) Dosage regimen: 2 times a week, 30 mg each time, the interval of two administrations should not be less than 3 days (for example, on Monday and Thursday, Tuesday and Friday, Wednesday and Saturday, etc.). The administration was performed 30 minutes after breakfast, every 3 weeks was a treatment cycle. During the entire study, all subjects should unceasingly receive the treatment under study until the appearance of any one of the following conditions: progression of disease, intolerable adverse reaction, death, withdrawal from treatment, withdrawal of the informed consent or loss to follow-up.
Number of cases: Simon's optimal two-stage design was adopted, 72 patients were enrolled, and pathological subtypes included: follicular lymphoma (FL) grade 1, grade 2 or grade 3, marginal zone B-cell lymphoma (MALT), lymphoplasmacytic lymphoma (LPL), small lymphocyte B cell lymphoma (SLL), diffuse large B cell lymphoma (DLBCL).
The patients were orally administrated with Chidamide according to the aforementioned dosage regimen, and the safety- and efficacy evaluation were performed as required at the specified time.
Efficacy evaluation time: efficacy evaluation was performed once every 6 weeks. […]

[2] = tested on: relapsed or refractory follicular lymphoma (FL) accompanied with specific epigenetic regulatory gene mutation; experiment: Multicenter, single-arm, open clinical trial of Chidamide tablet in relapsed or refractory follicular lymphoma with CREBBP and/or EP300 mutation (pre-test); type: in vivo, human; conditions: 11 patients accompanied with epigenetic mutation B-NHL, oral 30 mg 2 times a week
Description: as §1
as §2, with “follow-up. […]” for “follow-up.”
4. Having CREBBP and/or EP300 specific genetic mutation that was confirmed by second-generation sequencing;
Patients were orally administrated with Chidamide according to the regimen, and the following safety- and efficacy follow-ups were performed at the specified times:
Follow-up interval: Efficacy assessment was carried out once every 6 weeks; and efficacy follow-up was performed at the end of treatment.
Efficacy evaluation means: Evaluation of lymph nodes and organ lesions, skin lesions was performed by imaging methods (CT or PET/CT), clinical examination, bone marrow puncture and biopsy. The imaging methods used for patients must be the same at all follow-up points. […]

Work on `Nc1cc(F)ccc1NC(=O)c1ccc(CNC(=O)/C=C/c2cccnc2)cc1` [Chidamide] yielded an ORR [1] of 37.5%, a benefit rate [1] of 62.5% and a CR [2] of 36.3%. It also gave an ORR [2] of 72.7%.
